# Source: patent US20260042731A1, “(2,4-DICHLOROPHENOXY)ACETIC ACID ANALOGS” (CORTEVA AGRISCIENCE LLC, priority 2022, published 2026)
# Read-outs that look alike come from different tables or passages of the source.
# What was measured:
# [1] = tested on: Chenopodium album (CHEAL), common lambsquarters; assay: Postemergence herbicide evaluation, growth of Chenopodium album (CHEAL); type: in vivo; settings: for pest or weed control at 280 g/ha / pest or weed control at 560 g/ha: Chenopodium album, post-emergence, read-out: Ave. CHEAL, percent reduction in plant size relative to the untreated control; for Ave. CHEAL: percent reduction in plant size vs untreated control
# [2] = tested on: Abutilon theophrasti (ABUTH), velvetleaf; assay: Postemergence herbicide evaluation, growth of Abutilon theophrasti (ABUTH); type: in vivo; settings: for pest or weed control at 280 g/ha / pest or weed control at 560 g/ha: Abutilon theophrasti, post-emergence, read-out: AVE. ABUTH, percent reduction in plant size relative to the untreated control; for AVE. ABUTH: percent reduction in plant size vs untreated control
# [3] = Volatility of compounds measured by thermogravimetric analysis (TGA); type: physicochemical
# [4] = tested on: weeds ABUTH, AMATA, AMBEL, CHEAL, ERICA; assay: Postemergence herbicide evaluation, overall average % weed control (ABUTH, AMATA, AMBEL, CHEAL, ERICA); type: in vivo; settings: post-emergence, read-out: Overall Ave % Weed Control; for pest or weed control at 280 g/ha: 280 g ae/ha; for pest or weed control at 560 g/ha: 560 g ae/ha
# [5] = tested on: Common Lambsquarters (CHEAL); assay: Greenhouse post-emergence mixture trials, percent visual control; type: in vivo; settings: CHEAL, 21 DAA, Trial Bridge 2, compound 560 g ae/ha + Saflufenacil 75 g ai or ae/ha
# [6] = tested on: glyphosate resistant Conyza canadensis (L.) (ERICA), horseweed; assay: Postemergence herbicide evaluation, growth of Conyza canadensis (ERICA); type: in vivo; settings: for pest or weed control at 280 g/ha / pest or weed control at 560 g/ha: Erigeron canadensis, post-emergence, read-out: Ave. ERICA, percent reduction in plant size relative to the untreated control; for Ave. ERICA: percent reduction in plant size vs untreated control
# [7] = tested on: Amaranthus rudis (AMATA), tall water hemp; assay: Postemergence herbicide evaluation, growth of Amaranthus rudis (AMATA); type: in vivo; settings: for pest or weed control at 280 g/ha / pest or weed control at 560 g/ha: Amaranthus tuberculatus, post-emergence, read-out: Ave. AMATA, percent reduction in plant size relative to the untreated control; for Ave. AMATA: percent reduction in plant size vs untreated control
# [8] = tested on: Ambrosia artemisiifolia (AMBEL), common ragweed; assay: Postemergence herbicide evaluation, growth of Ambrosia artemisiifolia (AMBEL); type: in vivo; settings: for pest or weed control at 280 g/ha / pest or weed control at 560 g/ha: Ambrosia artemisiifolia, post-emergence, read-out: AVE. AMBEL, percent reduction in plant size relative to the untreated control; for AVE. AMBEL: percent reduction in plant size vs untreated control
# Corn (ZEAMX) = assay: Greenhouse post-emergence mixture trials, percent visual control; type: in vivo; settings: ZEAMX, 21 DAA
# [9] = tested on: Glycine max (Enlist E3 traited soybeans, GLXMA); settings: Enlist E3 soybean, percent reduction in plant size vs untreated control
# [10] = tested on: weeds ABUTH, AMATA, AMBEL, CHEAL, ERICA; assay: Postemergence herbicide evaluation, overall average % weed control across ABUTH, AMATA, AMBEL, CHEAL and ERICA; type: in vivo; settings: average over five weeds
structure (smiles),measurement,setting,value
"O=C(COc1ccc(Cl)cc1Cl)Nc1ccon1 [Compound D2, 2-(2,4-Dichlorophenoxy)-N-(isoxazol-3-yl)acetamide]",pest or weed control at 280 g/ha,"[1]; 168 h, 280 g ae/ha, 7 DAA",70%
same,pest or weed control at 560 g/ha,"[1]; 168 h, 560 g ae/ha, 7 DAA",73%
same,pest or weed control at 280 g/ha,"[1]; 336 h, 280 g ae/ha, 14 DAA",73%
same,pest or weed control at 560 g/ha,"[1]; 336 h, 560 g ae/ha, 14 DAA",88%
same,pest or weed control at 280 g/ha,"[1]; 504 h, 280 g ae/ha, 21 DAA",78%
same,pest or weed control at 560 g/ha,"[1]; 504 h, 560 g ae/ha, 21 DAA",97%
same,pest or weed control at 280 g/ha,"[2]; 168 h, 280 g ae/ha, 7 DAA",78%
same,pest or weed control at 560 g/ha,"[2]; 168 h, 560 g ae/ha, 7 DAA",88%
same,pest or weed control at 280 g/ha,"[2]; 336 h, 280 g ae/ha, 14 DAA",83%
same,pest or weed control at 560 g/ha,"[2]; 336 h, 560 g ae/ha, 14 DAA",93%
same,pest or weed control at 280 g/ha,"[2]; 504 h, 280 g ae/ha, 21 DAA",80%
same,pest or weed control at 560 g/ha,"[2]; 504 h, 560 g ae/ha, 21 DAA",99%
same,"TGA Data (rate of weight loss, volatility)",[3],0.2 µg/min
same,pest or weed control at 280 g/ha,"[4]; 168 h, 7 DAA",71%
same,pest or weed control at 560 g/ha,"[4]; 168 h, 7 DAA",77%
same,pest or weed control at 280 g/ha,"[4]; 336 h, 14 DAA",83%
same,pest or weed control at 560 g/ha,"[4]; 336 h, 14 DAA",92%
same,pest or weed control at 280 g/ha,"[4]; 504 h, 21 DAA",88%
same,pest or weed control at 560 g/ha,"[4]; 504 h, 21 DAA",98%
same,% Control,[5],100%
same,pest or weed control at 280 g/ha,"[6]; 168 h, 280 g ae/ha, 7 DAA",68%
same,pest or weed control at 560 g/ha,"[6]; 168 h, 560 g ae/ha, 7 DAA",73%
same,pest or weed control at 280 g/ha,"[6]; 336 h, 280 g ae/ha, 14 DAA",88%
same,pest or weed control at 560 g/ha,"[6]; 336 h, 560 g ae/ha, 14 DAA",94%
same,pest or weed control at 280 g/ha,"[6]; 504 h, 280 g ae/ha, 21 DAA",91%
same,pest or weed control at 560 g/ha,"[6]; 504 h, 560 g ae/ha, 21 DAA",99%
same,pest or weed control at 280 g/ha,"[7]; 168 h, 280 g ae/ha, 7 DAA",70%
same,pest or weed control at 560 g/ha,"[7]; 168 h, 560 g ae/ha, 7 DAA",78%
same,pest or weed control at 280 g/ha,"[7]; 336 h, 280 g ae/ha, 14 DAA",85%
same,pest or weed control at 560 g/ha,"[7]; 336 h, 560 g ae/ha, 14 DAA",92%
same,pest or weed control at 280 g/ha,"[7]; 504 h, 280 g ae/ha, 21 DAA",94%
same,pest or weed control at 560 g/ha,"[7]; 504 h, 560 g ae/ha, 21 DAA",97%
same,pest or weed control at 280 g/ha,"[8]; 168 h, 280 g ae/ha, 7 DAA",68%
same,pest or weed control at 560 g/ha,"[8]; 168 h, 560 g ae/ha, 7 DAA",73%
same,pest or weed control at 280 g/ha,"[8]; 336 h, 280 g ae/ha, 14 DAA",89%
same,pest or weed control at 560 g/ha,"[8]; 336 h, 560 g ae/ha, 14 DAA",97%
same,pest or weed control at 280 g/ha,"[8]; 504 h, 280 g ae/ha, 21 DAA",100%
same,pest or weed control at 560 g/ha,"[8]; 504 h, 560 g ae/ha, 21 DAA",97%
same,% Control,"Corn (ZEAMX); Trial Bridge 1, compound 1120 g ae/ha + Glufosinate 600 g ai or ae/ha",5%
same,plant injury at 560 g/ha,"Corn (ZEAMX); Zea mays, post-emergence, 504 h, compound 560 g ae/ha, no mixing partner, Trial Bridge 3",5%
"CC(C)CCCCCOC(=O)COc1ccc(Cl)cc1Cl [Isooctyl Ester, 2,4-D-isoctyl, reference compound]",Ave. CHEAL,"[1]; 280 g ae/ha, 7 DAA",82.5%
same,Ave. CHEAL,"[1]; 280 g ae/ha, 14 DAA",95%
same,Ave. CHEAL,"[1]; 280 g ae/ha, 21 DAA",96%
same,Ave. CHEAL,"[1]; 560 g ae/ha, 7 DAA",77.5%
same,Ave. CHEAL,"[1]; 560 g ae/ha, 14 DAA",96.5%
same,Ave. CHEAL,"[1]; 560 g ae/ha, 21 DAA",93.5%
same,AVE. ABUTH,"[2]; 280 g ae/ha, 7 DAA",72.5%
same,AVE. ABUTH,"[2]; 280 g ae/ha, 14 DAA",80%
same,AVE. ABUTH,"[2]; 280 g ae/ha, 21 DAA",97.5%
same,AVE. ABUTH,"[2]; 560 g ae/ha, 7 DAA",77.5%
same,AVE. ABUTH,"[2]; 560 g ae/ha, 14 DAA",98.5%
same,AVE. ABUTH,"[2]; 560 g ae/ha, 21 DAA",100%
same,AVE. GLXMA,"[9]; 280 g ae/ha, 7 DAA",0%
same,AVE. GLXMA,"[9]; 280 g ae/ha, 14 DAA",0%
same,AVE. GLXMA,"[9]; 280 g ae/ha, 21 DAA",0%
same,AVE. GLXMA,"[9]; 560 g ae/ha, 7 DAA",0%
same,AVE. GLXMA,"[9]; 560 g ae/ha, 14 DAA",0%
same,AVE. GLXMA,"[9]; 560 g ae/ha, 21 DAA",0%
same,Ave. ERICA,"[6]; 280 g ae/ha, 7 DAA",85%
same,Ave. ERICA,"[6]; 280 g ae/ha, 14 DAA",100%
same,Ave. ERICA,"[6]; 280 g ae/ha, 21 DAA",98%
same,Ave. ERICA,"[6]; 560 g ae/ha, 7 DAA",85%
same,Ave. ERICA,"[6]; 560 g ae/ha, 14 DAA",98.5%
same,Ave. ERICA,"[6]; 560 g ae/ha, 21 DAA",99.5%
same,Ave. AMATA,"[7]; 280 g ae/ha, 7 DAA",80%
same,Ave. AMATA,"[7]; 280 g ae/ha, 14 DAA",92.5%
same,Ave. AMATA,"[7]; 280 g ae/ha, 21 DAA",65%
same,Ave. AMATA,"[7]; 560 g ae/ha, 7 DAA",85%
same,Ave. AMATA,"[7]; 560 g ae/ha, 14 DAA",87.5%
same,Ave. AMATA,"[7]; 560 g ae/ha, 21 DAA",85%
same,AVE. AMBEL,"[8]; 280 g ae/ha, 7 DAA",82.5%
same,AVE. AMBEL,"[8]; 280 g ae/ha, 14 DAA",77.5%
same,AVE. AMBEL,"[8]; 280 g ae/ha, 21 DAA",100%
same,AVE. AMBEL,"[8]; 560 g ae/ha, 7 DAA",65%
same,AVE. AMBEL,"[8]; 560 g ae/ha, 14 DAA",90%
same,AVE. AMBEL,"[8]; 560 g ae/ha, 21 DAA",100%
same,Overall Ave % Weed Control,"[10]; 280 g ae/ha, 7 DAA",80.5%
same,Overall Ave % Weed Control,"[10]; 280 g ae/ha, 14 DAA",89%
same,Overall Ave % Weed Control,"[10]; 280 g ae/ha, 21 DAA",91.3%
same,Overall Ave % Weed Control,"[10]; 560 g ae/ha, 7 DAA",78%
same,Overall Ave % Weed Control,"[10]; 560 g ae/ha, 14 DAA",94.2%
same,Overall Ave % Weed Control,"[10]; 560 g ae/ha, 21 DAA",95.6%
